The data set is described as follows: Dissolution of brightener from granular laundry detergent formulations in hardness water, UV-Vis absorbance of filtered solution at 350 nm. The class given is physicochemical. The note with it: in comparison with the control formulation with LAS only; in words.

Description: The total surfactant levels for Formulations A-H are maintained the same at 20 wt %.
Prepare 10 gpg hardness water (Ca:Mg=3:1) and place 1L of such hardness water in each of 8 beakers separately. Weight a 6.12g sample from each of the Formulations A-H hereabove respectively, and put the samples into beakers with hardness water on the maganetic stirrers. Stir for 15 mins to dissolve the sample.
Take about 8 ml solution by using a 10m1 injection syringe. Install a 0.45pm filter on the injection syringe for filtering the solution when it is injected out of the syringe. Inject the filtered solution into a sample cuvette of the UV-Vis spectrophotometer. Place the sample cuvette in a measuring position of the UV-Vis spectrophotometer. Read and record the absorbance (ABS) of solutions at a UV wavelength of 350nm respectively.

With `O=S(=O)([O-])c1ccccc1C=Cc1ccc(-c2ccc(C=Cc3ccccc3S(=O)(=O)[O-])cc2)cc1.[Na+].[Na+]` [Florescent Brigthener 351, disodium 2,2′-([1,1′-biphenyl]-4,4′-diyldivinylene)bis(benzenesulphonate)], the “dissolution of the brightener in a surfactant system containing LAS, mid-cut AS, and soap” value was “much less”.

The values are drawn from patent publication US20180023041A1, “CLEANING COMPOSITIONS CONTAINING A DIAMINOSTILBENE BRIGHTENER” (The Procter & Gamble Company, priority 2016, published 2018).
